2 compounds from publication PMC4312176 (Chemical communications (Cambridge, England), 2015) can be followed below.

As a reminder, the Ki is a dissociation constant, usually derived from enzyme kinetics or from competition with a known ligand.

In assay [1] the target is T1, Plasmodium falciparum 1-deoxy-D-xylulose 5-phosphate reductoisomerase (PfDxr) (Plasmodium falciparum, UniProt Q8IKG4).
T1 sequence (Q8IKG4 73-488): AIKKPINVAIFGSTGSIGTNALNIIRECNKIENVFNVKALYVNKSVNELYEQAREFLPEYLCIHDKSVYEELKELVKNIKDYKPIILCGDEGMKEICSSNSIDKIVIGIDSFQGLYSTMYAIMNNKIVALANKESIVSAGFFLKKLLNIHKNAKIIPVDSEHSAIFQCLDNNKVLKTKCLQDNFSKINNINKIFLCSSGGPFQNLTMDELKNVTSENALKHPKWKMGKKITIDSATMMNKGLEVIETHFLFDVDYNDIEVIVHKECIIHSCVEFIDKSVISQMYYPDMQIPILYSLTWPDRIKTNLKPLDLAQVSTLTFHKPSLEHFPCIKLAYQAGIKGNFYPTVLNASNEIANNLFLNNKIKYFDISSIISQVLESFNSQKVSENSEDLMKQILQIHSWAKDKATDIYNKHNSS
Kind of assay: inhibition of purified recombinant PfDxr, NADPH consumption assay. Format: biochemical.

Assay [2] has as its target T1, Plasmodium falciparum 1-deoxy-D-xylulose 5-phosphate reductoisomerase (PfDxr). The assay can be described thus: co-crystal structure. Format: biochemical.

In the case of `CCC(=O)N(O)CCCP(=O)(O)O` [FR-900098P], the Ki in assay [1] was 0.92 ± 0.19 nM.

In the case of `CC(=O)N(O)CCCP(=O)(O)O` [FR-900098], the Ki in assay [2] was 3.7 ± 0.9 nM.
